Where two headings read alike, the source gives them in different places.
Tests used:
Escherichia coli = experiment: Single-point BisEDT-antibiotic combination FICI; assay type: cell-based
Acinetobacter baumanii = experiment: Single-point BisEDT-antibiotic combination FICI; assay type: cell-based; conditions: Abau 2594
Bukholderia multivorans = experiment: Single-point BisEDT-antibiotic combination FICI; assay type: cell-based; conditions: Bmult 5665
Pseudomonas aeruginosa = experiment: Single-point BisEDT-antibiotic combination FICI; assay type: cell-based; conditions: PA 1380
P. aeruginosa = experiment: Checkerboard broth microdilution MIC and FICI; assay type: cell-based, Pseudomonas aeruginosa; conditions: Pseudomonas aeruginosa, compound alone, read-out: MIC (μg/mL) Alone
Procedure: (§1) The effects of combinations of microparticulate Bis-EDT and four Bis-EDT analogs prepared as described above, and other agents against representative strains of several Gram-negative pathogenic bacteria were tested. A modification of a common laboratory method was used to determine synergism (FICI≦0.5), enhancement (0.5<FICI≦1.0), antagonism (FICI>4.0) and indifference (1.0<FICI≦4.0) used fractional inhibitory concentrations (FICs) and FIC indices (FICI) (Eliopoulos G and R Moellering. 1991. Antimicrobial combinations. In Antibiotics in Laboratory Medicine, Third Edition, edited by V Lorian. Williams and Wilkins, Baltimore, Md., pp. 432-492; Odds, 2003 J. Antimicrob. Chemother. 52(1):1). The checkerboard technique was used to determine FIC indices and was employed in this study.
(§2) Stock solutions of all test articles were prepared at 40× the final target concentration in the appropriate solvent. […] The final drug concentrations in the FIC assay plates were set to bracket the MIC value of each agent for each test organism, unless the strain was totally resistant to the test agent. […] The test organisms were originally received from clinical sources, or from the American Type Culture Collection. Upon receipt, the isolates were streaked onto Tryptic Soy Agar II (TSA). Colonies were harvested from these plates and a cell suspension was prepared in an appropriate broth growth medium containing cryoprotectant. Aliquots were then frozen at −80° C. The frozen seeds of the organisms to be tested in a given assay were thawed, streaked for isolation onto TSA plates, and incubated at 35° C. All organisms were tested in Mueller Hinton II Broth (Becton Dickinson, Lot No. 9044411). The broth was prepared at 1.05× normal weight/volume to offset the 5% volume of the drugs in the final test plates.
(§3) Minimal Inhibitory Concentration (MIC) values were previously determined using the broth microdilution method for aerobic bacteria (Clinical and Laboratory Standards Institute (CLSI). Methods for Dilution Antimicrobial Susceptibility Tests for Bacteria That Grow Aerobically; Approved Standard—Eighth Edition. CLSI document M07-A8 [ISBN 1-56238-689-1]. Clinical and Laboratory Standards Institute, 940 West Valley Road, Suite 1400, Wayne, Pa. 19087-1898 USA, 2009.).
(§4) FIC values were determined using a broth microdilution method previously described (Sweeney et al., 2003 Antimicrob. Agents Chemother. 47(6):1902-1906). To prepare the test plates, automated liquid handlers (Multidrop 384, Labsystems, Helsinki, Finland; Biomek 2000 and Multimek 96, Beckman Coulter, Fullerton Calif.) were used to conduct serial dilutions and liquid transfers.
(§5) The appropriate wells of standard 96-well microdilution plates (Falcon 3918) were filled with 150 μL of the appropriate solvent in columns 2-12 using the Multidrop 384. Three hundred microliters of each secondary test drug was added to each well in Column 1 of the plates. These plates were used to prepare the drug “mother plates” which provided the serial drug dilutions for the drug combination plates. The Biomek 2000 was used to transfer 150 μL of each secondary drug solution (40×) from the wells in Column 1 of the mother plate and to make eleven 2-fold serial dilutions. Mother plates of Bis-EDT (and analogs) were serial diluted top to bottom by hand, using a multichannel pipette. Two mother plates, one for each secondary drug and one for Bis-EDT (or analogs), were combined to form a “checkerboard” pattern by transfer of equal volumes (using a multi-channel pipette) to the drug combination plate. Row H and Column 12 each contained serial dilutions of one of the agents alone for determination of the MIC.
(§6) The “daughter plates” were loaded with 180 μL of test medium using the Multidrop 384. Then, the Multimek 96 was used to transfer 10 μL of drug solution from each well of the drug combination mother plate to each corresponding well of the daughter plate in a single step.

Klebsiella pneumoniae = experiment: Single-point BisEDT-antibiotic combination FICI; assay type: cell-based; conditions: KP 1231
Burkholderia cepacia = experiment: Single-point BisEDT-antibiotic combination FICI; assay type: cell-based; conditions: Bcep 1756
[1] = system: Staphylococcus aureus (SA, MRSA); experiment: Single-point BisEDT-antibiotic combination FICI; assay type: cell-based
Enterococcus faecalis = experiment: Single-point BisEDT-antibiotic combination FICI; assay type: cell-based; conditions: E Fc 3121
[2] = system: Gram-negative pathogenic bacteria; experiment: Checkerboard broth microdilution MIC and FICI; assay type: cell-based; conditions: compound alone; for MIC: Klebsiella pneumoniae, read-out: MIC (μg/mL) Alone
Procedure: as §1, §2, §3, §4, §5, §6

[3] = system: Streptococcus pneumoniae (SP, PRSP); experiment: Single-point BisEDT-antibiotic combination FICI; conditions: PRSP 5348

| SMILES | FICI, single-point BisEDT-antibiotic combination (Escherichia coli; EC 102) | FICI, single-point BisEDT-antibiotic combination (Escherichia coli; EC 2232) | FICI, single-point BisEDT-antibiotic combination (Acinetobacter baumanii) | FICI, single-point BisEDT-antibiotic combination (Bukholderia multivorans) | FICI, single-point BisEDT-antibiotic combination (Pseudomonas aeruginosa) | FICI, single-point BisEDT-antibiotic combination (Klebsiella pneumoniae) | FICI, single-point BisEDT-antibiotic combination (Burkholderia cepacia) | FICI, single-point BisEDT-antibiotic combination ([1]; MRSA 773) | FICI, single-point BisEDT-antibiotic combination ([1]; SA 100) | FICI, single-point BisEDT-antibiotic combination (Enterococcus faecalis) | FICI, single-point BisEDT-antibiotic combination [3] | further results |
| --- | --- | --- | --- | --- | --- | --- | --- | --- | --- | --- | --- | --- |
| C[C@H]1[C@H](NC(=O)/C(=N\OC(C)(C)C(=O)O)c2csc(N)n2)C(=O)N1S(=O)(=O)O [Aztreonam] | 0.74 | 1.29 | 0.87 | 0.96 | 0.55 | 0.73 | 0.67 | – | – | – | – | MIC (P. aeruginosa; P. aeruginosa 103): 8 µg/mL; MIC (P. aeruginosa; P. aeruginosa 1381): 64 µg/mL; MIC (P. aeruginosa; P. aeruginosa 1384): 8 µg/mL; MIC (P. aeruginosa; P. aeruginosa 1474): 8 µg/mL; MIC (P. aeruginosa; P. aeruginosa 1479): 8 µg/mL; MIC (P. aeruginosa; P. aeruginosa 2566): 16 µg/mL; MIC (P. aeruginosa; P. aeruginosa 2568): 8 µg/mL |
| CO/N=C(\C(=O)N[C@@H]1C(=O)N2C(C(=O)O)=C(COC(C)=O)CS[C@H]12)c1csc(N)n1 [Cefotaxime] | 1.37 | 1.29 | 1.29 | 1.11 | 0.64 | 0.61 | 1.29 | 2.23 | 1.11 | 0.73 | 1.11 | MIC (P. aeruginosa; P. aeruginosa 103): 16 µg/mL; MIC (μg/mL) Alone ([2]; K. pneumoniae 1355): 0.12 µg/mL; MIC (μg/mL) Alone ([2]; K. pneumoniae 2238): 8 µg/mL; MIC (μg/mL) Alone ([2]; K. pneumoniae 2549): 0.06 µg/mL; MIC ([2]; K. pneumoniae 1346): 0.06 µg/mL; MIC ([2]; K. pneumoniae 1355): 0.06 µg/mL; MIC ([2]; K. pneumoniae 2238): 16 µg/mL; MIC ([2]; K. pneumoniae 2546): 0.25 µg/mL; MIC ([2]; K. pneumoniae 2549): 0.12 µg/mL |
| O=C(O)c1cn(C2CC2)c2cc(N3CCNCC3)c(F)cc2c1=O [Ciprofloxacin] | 1.14 | – | 1.04 | 2.29 | 2.75 | – | 2.23 | – | – | – | – | – |
| CC[C@H]1OC(=O)[C@H](C)[C@@H](O[C@H]2C[C@@](C)(OC)[C@@H](O)[C@H](C)O2)[C@H](C)[C@@H](O[C@@H]2O[C@H](C)C[C@H](N(C)C)[C@H]2O)[C@](C)(O)C[C@@H](C)C(=O)[C@H](C)[C@@H](O)[C@]1(C)O [Erythromycin] | – | – | – | – | – | – | – | 0.67 | – | 0.92 | 1.03 | – |
| C[C@H]1COc2c(N3CCN(C)CC3)c(F)cc3c(=O)c(C(=O)O)cn1c23 [Levofloxacin] | – | – | – | – | – | – | – | 1.11 | 1.23 | 1.08 | 0.70 | – |
| Cc1onc(-c2ccccc2)c1C(=O)N[C@@H]1C(=O)N2[C@@H]1SC(C)(C)[C@@H]2C(=O)O [Oxacillin] | – | – | – | – | – | – | – | 2.28 | – | 0.92 | 1.03 | – |
| C[C@@H]1O[C@@H]1P(=O)(O)O [Phosphomycin] | – | 1.96 | 1.12 | 1.23 | 1.86 | 1.02 | 1.29 | 0.61 | – | 1.23 | 1.45 | – |
| CCN1CCN(C(=O)N[C@@H](C(=O)N[C@@H]2C(=O)N3[C@@H]2SC(C)(C)[C@@H]3C(=O)O)c2ccccc2)C(=O)C1=O [Piperacillin] | 0.87 | 1.29 | 1.12 | 1.12 | 0.67 | 2.23 | 1.12 | 1.28 | 0.57 | 1.11 | 1.11 | – |
| CN(C)[C@@H]1C(O)=C(C(N)=O)C(=O)[C@@]2(O)C(O)=C3C(=O)c4c(O)cccc4[C@@](C)(O)[C@H]3C[C@@H]12 [Tetracycline] | 0.62 | 0.79 | 1.12 | 1.12 | 1.29 | 1.29 | 1.96 | 1.23 | 0.89 | 0.92 | 0.34 | – |

From patent publication US9408393B2, “Bismuth-thiols as antiseptics for agricultural, industrial and other uses” (Microbion Corporation, priority 2010, dated 2016)
